How the values were obtained:
B16, melanoma cells = assay: Subcutaneous tumor model of B16 melanoma cells in C57Bl/6 mice, tumor growth; assay type: in vivo, mouse; settings: agent alone i.p. on day 10, 13, 16; compared with non-treated group; afterwards growth as in non-treated group
Description: The MC 38, mouse colon carcinoma cells or B16, melanoma cells were subcutaneously injected to the back of 6-week-old C57BI/6 mice (1×10^5 cells/mouse). After the tumor diameter (longer diameter) reached 5 mm (25 to 30 mm^2) (day 10), an anti-cancer agent and/or an anti-MFG-E8 antibody were/was intraperitoneally administered to each mouse on day 10, day 13, and day 16 according to any of the following protocols. The experiments according to each protocol were performed twice. The employed anti-MFG-E8 antibody was a blocking antibody commercially available from MBL. In protocols 1 to 4, MC38 was used, and B16 melanoma was used in protocol 5. […]

[1] = system: MC 38, mouse colon carcinoma cells; assay: Subcutaneous tumor model of MC38 colon carcinoma cells in C57Bl/6 mice, tumor growth; assay type: in vivo; settings: agent alone i.p. on day 10, 13, 16; compared with non-treated group; afterwards growth as in non-treated group
Description: The MC 38, mouse colon carcinoma cells or B16, melanoma cells were subcutaneously injected to the back of 6-week-old C57BI/6 mice (1×10^5 cells/mouse). After the tumor diameter (longer diameter) reached 5 mm (25 to 30 mm^2) (day 10), an anti-cancer agent and/or an anti-MFG-E8 antibody were/was intraperitoneally administered to each mouse on day 10, day 13, and day 16 according to any of the following protocols. The experiments according to each protocol were performed twice. The employed anti-MFG-E8 antibody was a blocking antibody commercially available from MBL. In protocols 1 to 4, MC38 was used, and B16 melanoma was used in protocol 5.
• Gemcitabine (GEM): 4 mg/kg • Gemcitabine (GEM): 1 mg/kg • Anti-MFG-E8 antibody: 1 mg/kg • Gemcitabine (GEM): 4 mg/kg+anti-MFG-E8 antibody: 1 mg/kg • Gemcitabine (GEM): 1 mg/kg+anti-MFG-E8 antibody: 1 mg/kg Protocol 2: • CPT-11: 1 mg/kg • 5-FU: 0.1 M • Anti-MFG-E8 antibody: 1 mg/kg • CPT-11: 1 mg/kg+anti-MFG-E8 antibody: 1 mg/kg • 5-FU: 0.1 M+anti-MFG-E8 antibody: 1 mg/kg Protocol 3: • Epidermal growth factor receptor tyrosine kinase 1 (EGFR-TK1): […] • Anti-vascular endothelial growth factor receptor-2 monoclonal antibody (α-VEGFR-2Ab): 40 mg/kg • Anti-MFG-E8 antibody: 1 mg/kg Protocol 4: • Irradiation (XRT): 3 Gy/day×5 • Anti-MFG-E8 antibody: 1 mg/kg Protocol 5: • Doxorubicin (Dox): 5 mg/kg • Etoposide (Etop): 2 mg/kg • Anti-MFG-E8 antibody: 1 mg/kg (Results)

dendritic cells = assay: OVA-specific T cell activity in mixed culture with treated dendritic cells, intracellular IFN-γ and IL-10; assay type: cell-based, mouse; settings: dendritic cells treated with MFG-E8 recombinant protein 100 μg/mL or anti-MFG-E8 antibody 20 μg/mL; 72 h; compared to control
Description: The mechanisms of activation of dendritic cells and T cells through employment of the anti-MFG-E8 antibody and the anti-cancer agent, such activation having been observed in vivo, were further investigated in vitro by using a mixed culture system.
Specifically, ovalbumin (OVA) was employed as a model antigen. In a specific procedure, bone marrow cells were collected from DO11.10 (MHC class II-restricting OVA antigen transgenic mice), and differentiation to dendritic cells was induced with granulocyte-monocyte colony-stimulating factor (GM-CSF). Seven days after the initiation of the differentiation induction, the cells were treated with MFG-E8 recombinant protein (100 μg/mL) or anti-MFG-E8 antibody (20 μg/mL). Thereafter, on day 8, the thus-treated cells were pulsed with MHC class II OVA-restricting OVA peptide ([…]) or a negative control peptide (HSA) for six hours. The resultant cells were admixed with naive CD4+ positive T cells derived from syngeneic (Balb/c) mice in such an amount that the ratio of dendritic cells to CD4+ T cells was adjusted to 1:10, and the cell mixture was cultured in the presence of an anti-CD3 antibody (0.1 μg/mL). Seventy-two hours after, the activity of T cells was determined through flow cytometry, in terms of intracellular expression of IFN-γ and IL-10.

Dendritic cells (BMDCs) = assay: Cytokine concentrations of BMDC culture supernatant, ELISA; assay type: cell-based, mouse; settings: recombinant MFG-E8 100 ng/mL or anti-MFG-E8 monoclonal antibody 20 μg/mL overnight
Description: Dendritic cells (BMDCs) were prepared through culturing myeloid progenitor cells for seven days in a GM-CSF containing medium, and treated overnight with recombinant MFG-E8 (100 ng/mL, product of R&D Systems), an anti-MFG-E8 monoclonal antibody (20 μg/mL, MBL), or a polyclonal MFG-E8 anti-serum (20 μg/mL). The IL-12, IL-23, TNF-α, and IL-10 concentrations of the culture supernatant were determined with ELISA. On day 7, BMDCs were co-cultured with PKH26 (Sigma-Aldrich)-labeled EG.7-OVA cells using a 12-well plate (ratio: 1:10), and phagocytosis was determined with flow cytometry. A similar experiment was performed using tumor cells treated for 30 minutes with an anti-MFG-E8 monoclonal antibody ([…]) before the co-culture. The effect of αvβ3 integrin-blocking antibody (RMV-7, product of Millipore) or Fc-receptor-blocking antibody (product of BD Bioscience) was also evaluated on the intake of tumor cells. Cross-presentation was tested using the following procedure. Specifically, naive CD4^+ T cells were isolated from the spleen of C57BL/6-Tg (ACTB-OVA) 916Jen/J mice using magnetic cell sorting (product of Miltenyi Biotech). The thus-isolated cells were added to the dendritic cells to which tumor cells had been loaded for 24 hours. Expression of IFN-γ within the cells was measured with flow cytometry.

| Molecule | tumor growth, anti-cancer agent alone (B16, melanoma cells) | tumor growth, anti-cancer agent alone [1] | other results |
| --- | --- | --- | --- |
| COc1cccc2c1C(=O)c1c(O)c3c(c(O)c1C2=O)C[C@@](O)(C(=O)CO)C[C@@H]3O[C@H]1C[C@H](N)[C@H](O)[C@H](C)O1 [doxorubicin] | tumor growth was significantly suppressed for 5 to 10 days after administration |  |  |
| COc1cc([C@@H]2c3cc4c(cc3[C@@H](O[C@@H]3O[C@@H]5CO[C@@H](C)O[C@H]5[C@H](O)[C@H]3O)[C@H]3COC(=O)[C@H]23)OCO4)cc(OC)c1O [etoposide] | tumor growth was significantly suppressed for 5 to 10 days after administration |  |  |
| CCc1c2c(nc3ccc(OC(=O)N4CCC(N5CCCCC5)CC4)cc13)-c1cc3c(c(=O)n1C2)COC(=O)[C@]3(O)CC [CPT-11] |  | tumor growth was significantly suppressed for 5 to 10 days after administration |  |
| O=c1[nH]cc(F)c(=O)[nH]1 [5FU, 5-FU] |  | tumor growth was significantly suppressed for 5 to 10 days after administration |  |
| Nc1ccn([C@@H]2O[C@H](CO)[C@@H](O)C2(F)F)c(=O)n1 [GEM, gemcitabine] |  | tumor growth was significantly suppressed for 5 to 10 days after administration |  |
| MFG-E8: MFG-E8 recombinant protein (product of R&D Systems in Example 11) (protein, UniProt Q08431 24-387, looked up) Lactadherin: LDICSKNPCHNGGLCEEISQEVRGDVFPSYTCTCLKGYAGNHCETKCVEPLGLENGNIANSQIAASSVRVTFLGLQHWVPELARLNRAGMVNAWTPSSNDDNPWIQVNLLRRMWVTGVVTQGASRLASHEYLKAFKVAYSLNGHEFDFIHDVNKKHKEFVGNWNKNAVHVNLFETPVEAQYVRLYPTSCHTACTLRFELLGCELNGCANPLGLKNNSIPDKQITASSSYKTWGLHLFSWNPSYARLDKQGNFNAWVAGSYGNDQWLQVDLGSSKEVTGIITQGARNFGSVQFVASYKVAYSNDSANWTEYQDPRTGSSKIFPGNWDNHSHKKNLFETPILARYVRILPVAWHNRIALRLELLGC |  |  | IL-10 production (dendritic cells): potentiation; OVA-specific IFN-γ production (dendritic cells): suppression; IL-10 production by dendritic cells (Dendritic cells (BMDCs)): enhanced secretion of IL-10 |
